Measurements reported in PubChem BioAssay AID1963961 (Molecular Pharmacology Branch, DTP, NCI, 2024).

Tested on: K98450-129-R-PDC multicell spheroids, viability
Assay: Anticancer human tumor K98450-129-R-PDC patient-derived colon adenocarcinoma cell line growth inhibition [PI3K]
Details: for IC50: curve of first compound; for viability, T/C: stronger effect = lower value
Summary of the method: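 Multi-cell spheroids combine tumor cells with HUVEC and human MSCs, treated with targeted agents alone or with inavolisib, alpelisib, duvelisib or copanlisib. Concentrations fall in half-log steps from at or near clinical Cmax, or from 10 microM where Cmax is unknown; viability read-out.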

[1] = second compound 0.0316 µM, first compound 0.0316 µM
[2] = second compound 0.0316 µM, first compound 0.1 µM
[3] = second compound 0.0316 µM, first compound 0.316 µM
[4] = second compound 0.0316 µM, first compound 1 µM
[5] = second compound 0.0316 µM, first compound 3.16 µM
[6] = second compound 0.0316 µM, first compound 10 µM
[7] = second compound 0.1 µM, first compound 0.0316 µM
[8] = second compound 0.1 µM, first compound 0.1 µM
[9] = second compound 0.1 µM, first compound 0.316 µM
[10] = second compound 0.1 µM, first compound 1 µM
[11] = second compound 0.1 µM, first compound 3.16 µM
[12] = second compound 0.1 µM, first compound 10 µM
[13] = second compound 0.316 µM, first compound 0.0316 µM
[14] = second compound 0.316 µM, first compound 0.1 µM
[15] = second compound 0.316 µM, first compound 0.316 µM
[16] = second compound 0.316 µM, first compound 1 µM
[17] = second compound 0.316 µM, first compound 3.16 µM
[18] = second compound 0.316 µM, first compound 10 µM
[19] = second compound 1 µM, first compound 0.0316 µM
[20] = second compound 1 µM, first compound 0.1 µM
[21] = second compound 1 µM, first compound 0.316 µM
[22] = second compound 1 µM, first compound 1 µM
[23] = second compound 1 µM, first compound 3.16 µM
[24] = second compound 1 µM, first compound 10 µM
[25] = second compound 3.16 µM, first compound 0.0316 µM
[26] = second compound 3.16 µM, first compound 0.1 µM
[27] = second compound 3.16 µM, first compound 0.316 µM
[28] = second compound 3.16 µM, first compound 1 µM
[29] = second compound 3.16 µM, first compound 3.16 µM
[30] = second compound 3.16 µM, first compound 10 µM
[31] = second compound 10 µM, first compound 0.0316 µM
[32] = second compound 10 µM, first compound 0.1 µM
[33] = second compound 10 µM, first compound 0.316 µM
[34] = second compound 10 µM, first compound 1 µM
[35] = second compound 10 µM, first compound 3.16 µM
[36] = second compound 10 µM, first compound 10 µM
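Note: spheroids exposed to agents for seven days before read-out.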

C#Cc1c(F)ccc2cc(O)cc(-c3ncc4c(N5CC6CCC(C5)N6)nc(OCC56CCCN5CC(F)C6)nc4c3F)c12 (stereo unspecified) + Cc1nc(NC(=O)N2CCCC2C(N)=O)sc1-c1ccnc(C(C)(C)C(F)(F)F)c1 was tested, and the IC50 (second compound 0.0316 µM) was > 10 µM, the IC50 (second compound 0.1 µM) was > 10 µM and the IC50 (second compound 0.316 µM) was > 10 µM. The IC50 (second compound 1 µM) was > 10 µM, the IC50 (second compound 3.16 µM) was > 10 µM and the IC50 (second compound 10 µM) was 7.68 µM. For the same compound, the viability, T/C [1] was 108%, the viability, T/C [2] was 97.4% and the viability, T/C [3] was 99.1%. For the same compound, the viability, T/C [4] was 95.5%, the viability, T/C [5] was 93.7% and the viability, T/C [6] was 83.2%. For the same compound, the viability, T/C [7] was 122%, the viability, T/C [8] was 97% and the viability, T/C [9] was 102%. It also gave a viability, T/C [10] of 88.7%, a viability, T/C [11] of 92.9% and a viability, T/C [12] of 82.2%. For the same compound, the viability, T/C [13] was 93.4%, the viability, T/C [14] was 96.2% and the viability, T/C [15] was 93.7%. For the same compound, the viability, T/C [16] was 83.8%, the viability, T/C [17] was 90.2% and the viability, T/C [18] was 77.7%. For the same compound, the viability, T/C [19] was 89.5%, the viability, T/C [20] was 92.4% and the viability, T/C [21] was 89%. For the same compound, the viability, T/C [22] was 85%, the viability, T/C [23] was 87.8% and the viability, T/C [24] was 76.5%. It also gave a viability, T/C [25] of 74.3%, a viability, T/C [26] of 78.9% and a viability, T/C [27] of 87.3%. The viability, T/C [28] was 75.3%, the viability, T/C [29] was 77.4% and the viability, T/C [30] was 63.5%. It also gave a viability, T/C [31] of 75.6%, a viability, T/C [32] of 69.2% and a viability, T/C [33] of 67.3%. It also gave a viability, T/C [34] of 63.1%, a viability, T/C [35] of 57.6% and a viability, T/C [36] of 47.3%.

Compound C=CC(=O)N1CCN(c2nc(=O)n(-c3c(C)ccnc3C(C)C)c3nc(-c4c(O)cccc4F)c(F)cc23)C(C)C1 (stereo unspecified) + Cc1nc(NC(=O)N2CCCC2C(N)=O)sc1-c1ccnc(C(C)(C)C(F)(F)F)c1 has an IC50 (second compound 0.0316 µM) of 4.01 µM, an IC50 (second compound 0.1 µM) of 3.48 µM and an IC50 (second compound 0.316 µM) of 2.63 µM. The IC50 (second compound 1 µM) was 1.91 µM, the IC50 (second compound 3.16 µM) was 1.33 µM and the IC50 (second compound 10 µM) was 0.502 µM. The viability, T/C [1] was 111%, the viability, T/C [2] was 102% and the viability, T/C [3] was 97.3%. The viability, T/C [4] was 84.5%, the viability, T/C [5] was 52.8% and the viability, T/C [6] was 33.1%. The viability, T/C [7] was 102%, the viability, T/C [8] was 94% and the viability, T/C [9] was 96.8%. The viability, T/C [10] was 77.7%, the viability, T/C [11] was 52.4% and the viability, T/C [12] was 28.2%. It also gave a viability, T/C [13] of 102%, a viability, T/C [14] of 106% and a viability, T/C [15] of 93.6%. For the same compound, the viability, T/C [16] was 78.7%, the viability, T/C [17] was 44% and the viability, T/C [18] was 26.8%. It also gave a viability, T/C [19] of 90.5%, a viability, T/C [20] of 92.7% and a viability, T/C [21] of 84.4%. It also gave a viability, T/C [22] of 69%, a viability, T/C [23] of 35.4% and a viability, T/C [24] of 22.7%. It also gave a viability, T/C [25] of 83.7%, a viability, T/C [26] of 85% and a viability, T/C [27] of 86.5%. The viability, T/C [28] was 55.7%, the viability, T/C [29] was 29.1% and the viability, T/C [30] was 17.6%. For the same compound, the viability, T/C [31] was 73.9%, the viability, T/C [32] was 79.3% and the viability, T/C [33] was 61.6%. For the same compound, the viability, T/C [34] was 31.1%, the viability, T/C [35] was 12.9% and the viability, T/C [36] was 8.56%.

For CC(Cn1ccc(-c2ccc(C#N)c(Cl)c2)n1)NC(=O)c1cc(C(C)O)[nH]n1 (stereo unspecified) + COc1c(OCCCN2CCOCC2)ccc2c3n(c(=NC(=O)c4cnc(N)nc4)nc12)CCN3, the IC50 (second compound 0.00316 µM) was > 10 µM, the IC50 (second compound 0.01 µM) was > 10 µM and the IC50 (second compound 0.0316 µM) was > 10 µM. The IC50 (second compound 0.1 µM) was > 10 µM, the IC50 (second compound 0.316 µM) was > 10 µM and the IC50 (second compound 1 µM) was 4.9 µM. The viability, T/C (second compound 0.00316 µM, first compound 0.0316 µM) was 102%, the viability, T/C (second compound 0.00316 µM, first compound 0.1 µM) was 97.7% and the viability, T/C (second compound 0.00316 µM, first compound 0.316 µM) was 117%. The viability, T/C (second compound 0.00316 µM, first compound 1 µM) was 104%, the viability, T/C (second compound 0.00316 µM, first compound 3.16 µM) was 107% and the viability, T/C (second compound 0.00316 µM, first compound 10 µM) was 111%. For the same compound, the viability, T/C (second compound 0.01 µM, first compound 0.0316 µM) was 116%, the viability, T/C (second compound 0.01 µM, first compound 0.1 µM) was 95% and the viability, T/C (second compound 0.01 µM, first compound 0.316 µM) was 105%. The viability, T/C (second compound 0.01 µM, first compound 1 µM) was 102%, the viability, T/C (second compound 0.01 µM, first compound 3.16 µM) was 90.7% and the viability, T/C (second compound 0.01 µM, first compound 10 µM) was 89.5%. It also gave a viability, T/C [1] of 88.9%, a viability, T/C [2] of 92.9% and a viability, T/C [3] of 80.5%. For the same compound, the viability, T/C [4] was 89.6%, the viability, T/C [5] was 93.1% and the viability, T/C [6] was 75.8%. The viability, T/C [7] was 74.9%, the viability, T/C [8] was 79% and the viability, T/C [9] was 82.1%. It also gave a viability, T/C [10] of 95.2%, a viability, T/C [11] of 90% and a viability, T/C [12] of 71.1%. It also gave a viability, T/C [13] of 47.2%, a viability, T/C [14] of 59.4% and a viability, T/C [15] of 64.2%. It also gave a viability, T/C [16] of 62.1%, a viability, T/C [17] of 72.1% and a viability, T/C [18] of 43.6%. The viability, T/C [19] was 48.5%, the viability, T/C [20] was 59.8% and the viability, T/C [21] was 63.2%. The viability, T/C [22] was 52.1%, the viability, T/C [23] was 54.2% and the viability, T/C [24] was 44%.
